Measured values as given in US20240245677A1, “SELECTED COMPOUNDS FOR TARGETED DEGRADATION OF BRD9” (C4 THERAPEUTICS, INC., priority 2021, published 2024).

Key:
in vitro = conditions: plasma, 3 h, 2 µM
Protocol: Plasma protein binding (PPB) of Compound 1 was evaluated in plasma from mice, rats, dogs, cynomolgus monkeys, and humans using ultracentrifugation.
Frozen plasma from CD-1 mice, Sprague-Dawley rats, beagle dogs, cynomolgus monkeys, and humans was purchased and stored at ≤−30° C. On the day of study, plasma samples of CD-1 mice, Sprague-Dawley rats, beagle dogs, cynomolgus monkeys and humans were thawed under running cold tap water and centrifuged to remove any particulates.
For the internal standard, telmisartan, a 1 mg/mL solution was prepared by dissolving 1.4 mg of telmisartan in 1.4 mL of DMSO, and stored at 4° C.
The 10 mM stock solution of each test compound was used to prepare 400 μM intermediate stocks in methanol. Then, a 2 μM working stock of each test compound was prepared for plasma from each species (mouse, rat, dog, monkey, and human) by spiking 12 μL of the 400 μM intermediate stock for each test compound into 2400 μL of thawed and prepared plasma from a test species.
400 μL of blank plasma for each species was transferred to a 0.5 mL Beckman tube (Part No. 343776, Beckman Coulter Life Sciences, Indianapolis, IN, USA) and centrifuged for 3 hours at 627000×g at 37° C. The supernatant was removed and kept at room temperature.
To prepare for ultracentrifugation, the rotor of the centrifuge was placed into an incubator and warmed up to 37° C. before centrifugation. The vacuum switch of the OPTIMA™ MAX-TL Ultracentrifuge (Beckman Coulter Life Sciences, Indianapolis, IN, USA) was turned on and the vacuum was reduced to less than 10 microns to warm up the system. The ultracentrifuge's parameters were set to the following: Temperature—37° C.; Time—3 hours; and Speed—627000×g. For each species and each test compound, 2.4 mL of working stock was mixed and pre-incubated for 45 minutes at 37° C. Then, 60 μL was separated and precipitated with 200 μL of acetonitrile containing internal standard and labeled as (TO), and 0.4 mL (triplicates) were transferred to Beckman 2 mL tubes (Part No. 344625, Beckman Coulter Life Sciences, Indiana, IN, USA).
For each species and each test compound, the triplicate 0.4 mL sample tubes were centrifuged for 3 hours at 627000×g at 37° C. […] At 45 minutes, 60 μL was separated, precipitated with 200 μL of acetonitrile containing internal standard and labelled as (T45). After completion of 3 hours, 60 μL of incubated samples were separated, precipitated with acetonitrile containing internal standard, and labeled as (T3).
After completing the 3 hours of centrifugation, 30 μl of the top fraction of supernatant from each sample tube was removed (free fraction) and precipitated with acetonitrile containing internal standard (labeled as top sample).
After removing 30 μL of the top fraction, remaining top and bottom layer were mixed thoroughly to make a uniform mixture. From this mixture, 30 μL of bottom sample was collected and precipitated with acetonitrile containing internal standard (labelled as bottom sample).
Matrix matching was done for crashed stability samples (TO, T45 and T3 samples) by adding 30 μL of a 50:50 mixture of blank plasma supernatant and phosphate-buffered saline (PBS), and for top and bottom samples, by adding 30 μL of blank plasma (kept at room temperature).
All the stability samples and centrifuged samples were vortexed at 1000 rpm for 5 minutes and centrifuged at 4000 rpm for 10 minutes. Supernatant from each sample was separated, diluted 2-fold with water, and analyzed in LC-MS/MS.
Samples (supernatant-free fraction and total plasma) were analyzed by LCMS-MS (no standards).

[1] = Competitive water activity study; assay type: physicochemical
Protocol: Competitive water activity experiments at 25° C. were conducted for hydrate Pattern A and anhydrate Pattern G. Pattern A, and Pattern G, were equilibrated at 25° C. in 6 different water activities with acetone/water mixtures. Obtained suspensions were stirred at 25° C. for 3 days and 7 days. Obtained suspensions were centrifuged and obtained solids were analyzed by XRPD immediately.
Competitive water activity experiments at 25° C. were conducted for hydrate Pattern A and anhydrate Pattern M. Pattern A, and Pattern M were equilibrated at 25° C. in 6 different water activities with acetone/water mixtures. Obtained suspension was stirred at 25° C. for 3 days and 7 days. Obtained suspensions were centrifuged and obtained solids were analyzed by XRPD immediately.

GSPT1 = target: T1, GSPT1 (Homo sapiens, UniProt P15170+Q96SW2); assay: GSPT1 HiBiT degradation assay in HEK293T.114 cells; assay type: cell-based; conditions: 6 hours
T1 construct: CRISPR-edited to endogenously express HiBiT tagged GSPT1; host or cells: HEK293T.114
Excerpt: This assay evaluated the off-target degradation of the cereblon neosubstrate, Eukaryotic peptide chain release factor GTP-binding subunit ERF3A (GSPT1), induced by treatment with Compound 1 as measured by luminescence using Nano-Glo HiBiT® Lytic Assay System in 293T cells CRISPR-edited to endogenously express HiBiT tagged GSPT1.
Nano-Glo® HiBiT Lytic Assay System was purchased from Promega (Catalog No. N3050, Madison, WI, USA). HEK293T cells were obtained from ATCC (Catalog No. CRL-3216, Manassas, VA, USA), and maintained in DMEM medium (Catalog No. 11995065, ThermoFischer Scientific, Waltham, MA, USA) supplemented with 10% heat inactivated FBS (Catalog No. 16000-044, Gibco, Grand Island, NY, USA) at 37° C. in an atmosphere of 5% CO2 in air. The HiBiT polypeptide tag was introduced into the N-terminus of the endogenous GSPT1 locus by CRISPR-Cas9 to produce the HEK293T.114 modified cell line. The HiBiT polypeptide allows reconstitution of NanoBiT enzyme following cell lysis and addition of the complementing LgBiT polypeptide that activates substrate to produce a luminescent signal that is directly proportional to the amount of HiBiT-tagged GSPT1.
HEK293T.114 cells were routinely sub-cultured to maintain cell density between 30-80% confluence, not to exceed 20 passages. Cells were washed with PBS, trypsinized for 5 minutes at 37° C., and resuspended in fresh growth media without phenol red. An aliquot was diluted 2× with Trypan Blue solution 0.4% (Catalog No. 15250061, ThermoFisher Scientific, Waltham, MA, USA) and cell count determined. Cell concentration was adjusted with growth media without phenol red to 2×10^5 cells/mL.
The 10 mM DMSO stock solutions of Compound 1 or CC0885 were serially diluted (half log) in DMSO to generate 11-point dose series (10000, 3160, 1000, 316, 100, 31.6, 10, 3.2, 1, 0.32, 0.1 μM) in an acoustic ready 384-well low dead volume microplate (Catalog No. LP-0200, Beckman Coulter Life Sciences, Indianapolis, IN, USA). Using an Echo 550 Acoustic Liquid Handler (Beckman Coulter Life Sciences, Indianapolis, IN, USA), 30 nL of serially diluted compound solutions were dispensed in duplicate to each 384-well black TC-treated microplate (Catalog No. 3571, Corning, Glendale, CA, USA). 30 nL DMSO was transferred to all control wells.
30 μL of HEK293T.114 cells suspended in growth media without phenol red at 2×10^5 cells/mL (6000 cells/well) were dispensed using a Multidrop Combi Reagent Dispenser (Catalog No. 5840300, ThermoFisher Scientific, Waltham, MA, USA) to each well of columns 1-23 of 384-well black TC-treated microplates containing duplicate concentration range of test compounds and DMSO controls. 30 μL of media was dispensed to column 24 as background positive control (P). Plates were spun briefly at 1000 rpm and cells were incubated at 37° C., 5% CO2 for 6 hours. Final concentration of DMSO was 0.1% for all samples.
Cellular GSPT1 protein level was determined based on quantification of HiBiT using Nano-Glo® HiBiT Lytic Assay System (Promega). 30 μL Nano-Glo Lytic Assay reagents were added to each well of columns 1-23 and luminescence was acquired on EnVision® Multilabel Reader (Catalog No. 2104-0010, Perkin Elmer Inc., Dumfries, VA, USA). Column 24 (cells without Nano-Glo reagent addition) was used as plate background or positive control (P). Cells treated in the absence of the test compound (0.1% DMSO vehicle) were the negative control (N)/
Percent response of compound-treated samples (T) were calculated by normalizing to the DMSO treated negative (N) controls on the same microtiter plate after background (i.e., positive control) signal subtraction:
Curve fit and DC50 (concentration that degrades 50% GSPT1) determination was performed by 4 parametric logistic fit analysis using software such as GraphPad Prism software (GraphPad Software, LLC, San Diego, CA, USA). […]

[2] = Acetone/water (v:v = 60:40), a.w. 0.8
[3] = Acetone/water (v:v = 86:14), a.w. 0.6
[4] = Acetone/water (v:v = 95:5), a.w. 0.4
[5] = Acetone/water (v:v = 98:2), a.w. 0.2

T1 sequence (P15170 whole entry): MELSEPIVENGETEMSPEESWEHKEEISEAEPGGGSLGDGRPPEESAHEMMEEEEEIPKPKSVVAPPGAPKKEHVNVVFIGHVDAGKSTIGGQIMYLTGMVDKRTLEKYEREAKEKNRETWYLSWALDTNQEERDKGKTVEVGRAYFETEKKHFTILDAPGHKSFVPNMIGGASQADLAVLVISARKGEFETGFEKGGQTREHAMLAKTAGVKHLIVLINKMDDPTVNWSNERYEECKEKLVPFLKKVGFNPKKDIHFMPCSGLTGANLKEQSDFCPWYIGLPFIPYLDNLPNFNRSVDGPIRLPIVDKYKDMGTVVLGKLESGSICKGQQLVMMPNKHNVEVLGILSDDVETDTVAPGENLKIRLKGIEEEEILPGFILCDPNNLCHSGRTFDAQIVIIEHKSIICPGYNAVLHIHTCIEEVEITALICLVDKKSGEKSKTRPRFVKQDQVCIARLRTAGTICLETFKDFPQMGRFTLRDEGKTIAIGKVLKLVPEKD
T1 sequence (Q96SW2 whole entry): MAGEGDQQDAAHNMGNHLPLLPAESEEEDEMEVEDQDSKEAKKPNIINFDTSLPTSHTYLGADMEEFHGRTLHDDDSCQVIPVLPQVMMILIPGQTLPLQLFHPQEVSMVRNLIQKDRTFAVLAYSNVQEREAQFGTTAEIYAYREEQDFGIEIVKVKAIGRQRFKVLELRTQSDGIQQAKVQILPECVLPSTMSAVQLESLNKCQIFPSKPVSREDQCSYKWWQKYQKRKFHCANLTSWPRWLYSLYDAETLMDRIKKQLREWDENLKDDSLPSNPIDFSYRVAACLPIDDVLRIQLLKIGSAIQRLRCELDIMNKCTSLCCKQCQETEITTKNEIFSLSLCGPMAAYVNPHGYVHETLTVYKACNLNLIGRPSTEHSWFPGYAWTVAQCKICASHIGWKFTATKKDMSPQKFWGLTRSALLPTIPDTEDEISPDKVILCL
T1 sequence (Q16531 2-1140 partner limits assumed): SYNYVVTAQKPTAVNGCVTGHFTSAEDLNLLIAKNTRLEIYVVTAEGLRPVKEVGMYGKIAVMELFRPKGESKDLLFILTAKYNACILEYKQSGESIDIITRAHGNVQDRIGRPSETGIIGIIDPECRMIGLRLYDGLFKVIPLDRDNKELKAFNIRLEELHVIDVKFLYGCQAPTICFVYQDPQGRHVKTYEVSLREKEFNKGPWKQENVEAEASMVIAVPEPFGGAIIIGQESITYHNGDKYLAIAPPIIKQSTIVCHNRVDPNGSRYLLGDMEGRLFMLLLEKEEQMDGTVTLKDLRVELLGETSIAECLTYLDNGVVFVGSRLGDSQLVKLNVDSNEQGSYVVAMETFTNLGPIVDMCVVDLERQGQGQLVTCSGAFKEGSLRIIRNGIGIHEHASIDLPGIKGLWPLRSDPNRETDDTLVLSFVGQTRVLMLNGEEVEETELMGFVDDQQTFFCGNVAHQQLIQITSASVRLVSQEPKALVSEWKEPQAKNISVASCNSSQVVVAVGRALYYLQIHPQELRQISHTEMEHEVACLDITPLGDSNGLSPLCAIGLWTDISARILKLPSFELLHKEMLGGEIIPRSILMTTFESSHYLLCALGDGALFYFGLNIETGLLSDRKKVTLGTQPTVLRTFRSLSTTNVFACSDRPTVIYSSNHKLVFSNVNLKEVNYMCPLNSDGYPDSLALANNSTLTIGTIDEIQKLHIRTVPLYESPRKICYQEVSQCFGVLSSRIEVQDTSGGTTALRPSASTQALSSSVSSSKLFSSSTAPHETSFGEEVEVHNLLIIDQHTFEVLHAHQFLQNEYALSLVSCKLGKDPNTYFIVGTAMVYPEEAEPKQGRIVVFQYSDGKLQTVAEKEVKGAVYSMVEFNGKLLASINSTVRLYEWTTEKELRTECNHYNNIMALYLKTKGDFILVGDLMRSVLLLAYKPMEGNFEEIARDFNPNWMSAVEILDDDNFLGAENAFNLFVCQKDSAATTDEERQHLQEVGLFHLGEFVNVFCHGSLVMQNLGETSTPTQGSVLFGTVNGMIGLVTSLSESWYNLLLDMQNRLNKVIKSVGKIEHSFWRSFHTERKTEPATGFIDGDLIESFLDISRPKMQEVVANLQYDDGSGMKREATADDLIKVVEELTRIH

## CC(=O)CC(c1ccccc1)c1c(O)c2ccccc2oc1=O (stereo not shown) [Warfarin, reference compound]
In vitro; CD-1, mouse
  % Remaining at 3 hours: 107.21%
In vitro; Sprague-Dawley, rat
  % Remaining at 3 hours: 88.82%
In vitro; beagle, dog
  % Remaining at 3 hours: 111.42%
In vitro; human
  % Remaining at 3 hours: 91.67%
In vitro; monkey
  % Remaining at 3 hours: 115.61%

## COc1cc(-c2cn(C)c(=O)c(C)c2C)cc(OC)c1CN1CC[C@H](N2CCN(c3ccc(N[C@H]4CCC(=O)NC4=O)cc3F)CC2)C(F)(F)C1 [Pattern A, Pattern C, Pattern D, and Pattern E]
[1]; Acetone, a.w. 0.0
  XRPD-7 days: Pattern B
[1]; Acetone/water (v:v = 36:64), a.w. 0.9
  XRPD-7 days: Pattern K
[1]; Acetone/water (v:v = 76:24), a.w. 0.7
  XRPD-7 days: Pattern K
[1]; Acetone/water (v:v = 92:8), a.w. 0.5
  XRPD-7 days: Pattern B
[1]; Acetone/water (v:v = 97:30), a.w. 0.3
  XRPD-7 days: Pattern B
[1]; Acetone/water (v:v = 99.5:0.5), a.w. 0.1
  XRPD-7 days: Pattern B
[1]; Water, a.w. 1.0
  XRPD-7 days: Pattern K

## COc1cc(-c2cn(C)c(=O)c(C)c2C)cc(OC)c1CN1CC[C@H](N2CCN(c3ccc(N[C@H]4CCC(=O)NC4=O)cc3F)CC2)C(F)(F)C1 [Pattern A and Pattern G]
[1]; Acetone, a.w. 0.0
  XRPD-3 days: Pattern B
  XRPD-7 days: Pattern N
[1]; [2]
  XRPD-3 days: Pattern K
  XRPD-7 days: Pattern K
[1]; [3]
  XRPD-3 days: Pattern B
  XRPD-7 days: Pattern B
[1]; [4]
  XRPD-3 days: Pattern B
  XRPD-7 days: Pattern N
[1]; [5]
  XRPD-3 days: Pattern B
  XRPD-7 days: Pattern N
[1]; Water, a.w. 1.0
  XRPD-7 days: Pattern K

## Cc1ccc(NC(=O)NCc2ccc3c(c2)CN(C2CCC(=O)NC2=O)C3=O)cc1Cl (stereo not shown) [CC-885, reference compound]
GSPT1; 0.100 nM
  % GSPT1 Remaining, Mean: 106.2%
GSPT1; 0.316 nM
  % GSPT1 Remaining, Mean: 99.3%
GSPT1; 1.00 nM
  % GSPT1 Remaining, Mean: 96.4%
GSPT1; 3.15 nM
  % GSPT1 Remaining, Mean: 101.9%
GSPT1; 10.0 nM
  % GSPT1 Remaining, Mean: 107.2%
GSPT1; 31.5 nM
  % GSPT1 Remaining, Mean: 102.5%
GSPT1; 100 nM
  % GSPT1 Remaining, Mean: 102.6%
GSPT1; 317 nM
  % GSPT1 Remaining, Mean: 100.9%
GSPT1; 1000 nM
  % GSPT1 Remaining, Mean: 101.1%
GSPT1; 3161 nM
  % GSPT1 Remaining, Mean: 103.2%
GSPT1; 9990 nM
  % GSPT1 Remaining, Mean: 98.8%
GSPT1; GSPT1-HiBiT, HEK293T.114 cells
  Mean Emax (%) ± SD: 92.85 ± 1.30%
GSPT1; GSPT1-HiBiT, HEK293T.114 cells, read-out: Geometric Mean DC50
  DC50: 1.93 nM
GSPT1; positive control
  degradation of GSPT1 induced: > 95%

## COc1cc(-c2cn(C)c(=O)c(C)c2C)cc(OC)c1CN1CC[C@H](N2CCN(c3ccc(N[C@H]4CCC(=O)NC4=O)cc3F)CC2)C(F)(F)C1 [Pattern A and Pattern M]
[1]; Acetone, a.w. 0.0
  XRPD-3 days: Pattern N
  XRPD-7 days: Pattern N
[1]; [2]
  XRPD-3 days: Pattern K
  XRPD-7 days: Pattern A
[1]; [3]
  XRPD-3 days: Pattern N
  XRPD-7 days: Pattern N
[1]; [4]
  XRPD-3 days: Pattern N
  XRPD-7 days: Pattern N
[1]; [5]
  XRPD-3 days: Pattern N
  XRPD-7 days: Pattern N
[1]; Water, a.w. 1.0
  XRPD-3 days: Pattern K
  XRPD-7 days: Pattern A
